The CheMixHub viscosity set
Several values for one entry are separate records, joined by “and”; a condition that tells them apart may be missing. Equal values may be shown once.

Assay: xn = mol fraction of the nth substance listed

Nc1ccccc1 + C1CCCCC1
Conditions	viscosity
301.05 K, 101.32 kPa, x1 = 0.7073	1.9 mPa·s
301.92 K, 101 kPa, x1 = 0.238	1.083 mPa·s
302.2 K, 101 kPa, x1 = 0.592	1.621 mPa·s
302.46 K, 101 kPa, x1 = 0.745	1.893 mPa·s
302.5 K, 101 kPa, x1 = 0.63	1.651 mPa·s
302.66 K, 101 kPa, x1 = 0.71	1.798 mPa·s
302.76 K, 101 kPa, x1 = 0.337	1.185 mPa·s
303 K, 101 kPa, x1 = 0.442	1.643 mPa·s and 1.611 mPa·s
303.02 K, 101 kPa, x1 = 0.442	1.57 mPa·s
303.08 K, 101 kPa, x1 = 0.39	1.305 mPa·s
303.09 K, 101 kPa, x1 = 0.442	1.539 mPa·s
303.12 K, 101 kPa, x1 = 0.592	1.574 mPa·s
303.15 K, 101 kPa, x1 = 0.442	1.496 mPa·s
303.15 K, 101.32 kPa, x1 = 0.7073	1.79 mPa·s
303.22 K, 101 kPa, x1 = 0.442	1.458 mPa·s
303.26 K, 101 kPa, x1 = 0.745	1.847 mPa·s
303.35 K, 101 kPa, x1 = 0.442	1.419 mPa·s
303.39 K, 101 kPa, x1 = 0.39	1.275 mPa·s
303.58 K, 101 kPa, x1 = 0.492	1.434 mPa·s
303.61 K, 101 kPa, x1 = 0.442	1.386 mPa·s
303.68 K, 101 kPa, x1 = 0.41	1.31 mPa·s
303.76 K, 101 kPa, x1 = 0.442	1.366 mPa·s
303.9 K, 101 kPa, x1 = 0.442	1.353 mPa·s
303.92 K, 101 kPa, x1 = 0.39	1.238 mPa·s
304.07 K, 101 kPa, x1 = 0.592	1.531 mPa·s
304.09 K, 101 kPa, x1 = 0.745	1.808 mPa·s
304.1 K, 101 kPa, x1 = 0.442	1.335 mPa·s
304.25 K, 101 kPa, x1 = 0.71	1.731 mPa·s
304.32 K, 101 kPa, x1 = 0.543	1.452 mPa·s
304.38 K, 101 kPa, x1 = 0.442	1.32 mPa·s
304.39 K, 101 kPa, x1 = 0.337	1.109 mPa·s
304.42 K, 101 kPa, x1 = 0.39	1.215 mPa·s
304.51 K, 101 kPa, x1 = 0.523	1.41 mPa·s
304.53 K, 101 kPa, x1 = 0.492	1.373 mPa·s
304.56 K, 101 kPa, x1 = 0.63	1.546 mPa·s
304.58 K, 101 kPa, x1 = 0.442	1.302 mPa·s
304.59 K, 101 kPa, x1 = 0.41	1.244 mPa·s
304.64 K, 101 kPa, x1 = 0.462	1.334 mPa·s
304.75 K, 101.32 kPa, x1 = 0.5628	1.51 mPa·s
304.99 K, 101 kPa, x1 = 0.442	1.281 mPa·s
305.01 K, 101 kPa, x1 = 0.745	1.77 mPa·s
305.05 K, 101.32 kPa, x1 = 0.5628	1.48 mPa·s
305.17 K, 101 kPa, x1 = 0.71	1.693 mPa·s
305.24 K, 101 kPa, x1 = 0.442	1.268 mPa·s
305.41 K, 101 kPa, x1 = 0.39	1.169 mPa·s
305.51 K, 101 kPa, x1 = 0.592	1.466 mPa·s
305.83 K, 101 kPa, x1 = 0.745	1.737 mPa·s
305.91 K, 101 kPa, x1 = 0.442	1.236 mPa·s
306.15 K, 101.32 kPa, x1 = 0.7073	1.65 mPa·s
306.28 K, 101 kPa, x1 = 0.337	1.051 mPa·s
306.33 K, 101 kPa, x1 = 0.462	1.247 mPa·s
306.36 K, 101 kPa, x1 = 0.442	1.216 mPa·s
306.36 K, 101 kPa, x1 = 0.492	1.292 mPa·s
306.37 K, 101 kPa, x1 = 0.543	1.363 mPa·s
306.39 K, 101 kPa, x1 = 0.63	1.481 mPa·s
306.5 K, 101 kPa, x1 = 0.523	1.328 mPa·s
306.54 K, 101 kPa, x1 = 0.41	1.163 mPa·s
306.88 K, 101 kPa, x1 = 0.71	1.624 mPa·s
307.09 K, 101 kPa, x1 = 0.745	1.683 mPa·s
307.11 K, 101 kPa, x1 = 0.442	1.192 mPa·s
307.79 K, 101 kPa, x1 = 0.592	1.39 mPa·s
307.84 K, 101 kPa, x1 = 0.442	1.159 mPa·s
308.04 K, 101 kPa, x1 = 0.492	1.235 mPa·s
308.08 K, 101 kPa, x1 = 0.745	1.642 mPa·s
308.26 K, 101 kPa, x1 = 0.41	1.103 mPa·s
308.28 K, 101 kPa, x1 = 0.39	1.07 mPa·s
308.35 K, 101 kPa, x1 = 0.337	0.993 mPa·s
308.35 K, 101 kPa, x1 = 0.462	1.172 mPa·s
308.36 K, 101 kPa, x1 = 0.543	1.292 mPa·s
308.41 K, 101 kPa, x1 = 0.63	1.409 mPa·s
308.43 K, 101 kPa, x1 = 0.523	1.261 mPa·s
309.04 K, 101 kPa, x1 = 0.745	1.609 mPa·s
309.11 K, 101 kPa, x1 = 0.442	1.122 mPa·s
309.15 K, 101.32 kPa, x1 = 0.7073	1.53 mPa·s
309.4 K, 101 kPa, x1 = 0.592	1.324 mPa·s
309.69 K, 101 kPa, x1 = 0.71	1.52 mPa·s
309.88 K, 101 kPa, x1 = 0.492	1.169 mPa·s
310.04 K, 101 kPa, x1 = 0.745	1.57 mPa·s
310.08 K, 101 kPa, x1 = 0.543	1.234 mPa·s
310.21 K, 101 kPa, x1 = 0.337	0.953 mPa·s
310.23 K, 101 kPa, x1 = 0.41	1.047 mPa·s
310.32 K, 101 kPa, x1 = 0.442	1.09 mPa·s
310.32 K, 101 kPa, x1 = 0.462	1.117 mPa·s
310.41 K, 101 kPa, x1 = 0.523	1.2 mPa·s
310.49 K, 101 kPa, x1 = 0.63	1.345 mPa·s
311.23 K, 101 kPa, x1 = 0.745	1.534 mPa·s
311.28 K, 101 kPa, x1 = 0.592	1.258 mPa·s
311.35 K, 101 kPa, x1 = 0.39	0.995 mPa·s
311.37 K, 101 kPa, x1 = 0.442	1.063 mPa·s
311.64 K, 101 kPa, x1 = 0.492	1.12 mPa·s
311.89 K, 101 kPa, x1 = 0.523	1.16 mPa·s
311.98 K, 101 kPa, x1 = 0.71	1.439 mPa·s
311.98 K, 101 kPa, x1 = 0.745	1.501 mPa·s
312.01 K, 101 kPa, x1 = 0.462	1.067 mPa·s
312.07 K, 101 kPa, x1 = 0.41	1.004 mPa·s
312.11 K, 101 kPa, x1 = 0.337	0.919 mPa·s
312.18 K, 101 kPa, x1 = 0.63	1.289 mPa·s
312.19 K, 101 kPa, x1 = 0.543	1.174 mPa·s
312.2 K, 101 kPa, x1 = 0.442	1.042 mPa·s

NCCN + CC(O)CO
viscosity [mPa·s], 101 kPa
Conditions	293.15 K	298.15 K	303.15 K	308.15 K	313.15 K	318.15 K
x2 = 0.0399	1.85	1.64	1.48	1.33	1.2	1.08
x2 = 0.0807	2.29	2	1.82	1.62	1.43	1.29
x2 = 0.1223	2.72	2.49	2.23	1.95	1.81	1.54
x2 = 0.1649	3.73	3.14	2.84	2.47	2.21	1.89
x2 = 0.2084	4.73	4.04	3.54	3.02	2.63	2.28
x2 = 0.2529	6.26	5.27	4.5	3.9	3.33	–
x2 = 0.2984	8.74	7.05	6	5.01	4.23	–
x2 = 0.3449	11.9	9.4	7.92	6.61	5.49	–
x2 = 0.3926	16.9	12.4	10.5	8.39	6.94	–
x2 = 0.4413	22.8	16.9	13.6	10.7	8.8	–
x2 = 0.4912	30.5	22.5	17.7	13.7	11	–
x2 = 0.5423	39.6	28.8	22.7	17.2	13.6	–
x2 = 0.5946	48.1	34.7	27.4	20.6	16.1	–
x2 = 0.6483	55.8	41.5	31.7	23.6	18.5	–
x2 = 0.7032	62.6	46.3	35.2	25.9	20.3	–
x2 = 0.7596	66.6	49.7	37.8	27.6	21.6	–
x2 = 0.8174	66.8	49.9	38.4	28.4	22.2	–
x2 = 0.8767	64.5	48.8	37.4	27.4	22.1	–
x2 = 0.9375	60.7	46.2	35.5	26.2	21.1	–

CCC(O)CO (stereo not given) + O
viscosity, 101 kPa
Conditions	293.15 K	298.15 K	303.15 K	308.15 K	313.15 K	318.15 K	323.15 K
x1 = 0.005	1.087 mPa·s	0.964 mPa·s	0.865 mPa·s	0.783 mPa·s	–	–	–
x1 = 0.0099	–	–	0.935 mPa·s	0.838 mPa·s	0.756 mPa·s	0.687 mPa·s	0.628 mPa·s
x1 = 0.01	1.188 mPa·s	1.034 mPa·s	0.919 mPa·s	0.824 mPa·s	–	–	–
x1 = 0.015	1.285 mPa·s	1.129 mPa·s	0.978 mPa·s	–	–	–	–
x1 = 0.02	1.372 mPa·s	1.204 mPa·s	1.099 mPa·s and 1.052 mPa·s	0.976 mPa·s	0.874 mPa·s	0.789 mPa·s	0.716 mPa·s
x1 = 0.0299	–	–	1.268 mPa·s	1.117 mPa·s	0.993 mPa·s	0.89 mPa·s	0.802 mPa·s
x1 = 0.0401	–	–	1.459 mPa·s	1.275 mPa·s	1.126 mPa·s	1.002 mPa·s	0.9 mPa·s
x1 = 0.0496	–	–	1.639 mPa·s	1.422 mPa·s	1.247 mPa·s	1.104 mPa·s	0.986 mPa·s
x1 = 0.0599	–	–	1.856 mPa·s	1.599 mPa·s	1.394 mPa·s	1.229 mPa·s	1.092 mPa·s
x1 = 0.0701	–	–	2.073 mPa·s	1.776 mPa·s	1.54 mPa·s	1.351 mPa·s	1.193 mPa·s
x1 = 0.0799	–	–	2.279 mPa·s	1.944 mPa·s	1.679 mPa·s	1.467 mPa·s	1.292 mPa·s
x1 = 0.0899	–	–	2.493 mPa·s	2.12 mPa·s	1.823 mPa·s	1.587 mPa·s	1.395 mPa·s
x1 = 0.0999	–	3.41 mPa·s	2.736 mPa·s and 2.855 mPa·s	2.311 mPa·s and 2.445 mPa·s	1.98 mPa·s and 2.138 mPa·s	1.718 mPa·s	1.506 mPa·s
x1 = 0.2006	–	6.704 mPa·s	5.489 mPa·s	4.586 mPa·s	3.907 mPa·s	–	–
x1 = 0.3009	–	10.27 mPa·s	8.312 mPa·s	6.887 mPa·s	5.759 mPa·s	–	–
x1 = 0.4001	–	14.49 mPa·s	11.54 mPa·s	9.39 mPa·s	7.779 mPa·s	–	–
x1 = 0.5025	–	19.54 mPa·s	15.45 mPa·s	12.42 mPa·s	10.14 mPa·s	–	–
x1 = 0.5987	–	25.28 mPa·s	19.39 mPa·s	15.5 mPa·s	12.54 mPa·s	–	–
x1 = 0.702	–	31.76 mPa·s	24.06 mPa·s	18.94 mPa·s	15.12 mPa·s	–	–
x1 = 0.8038	–	38.27 mPa·s	28.82 mPa·s	22.48 mPa·s	17.7 mPa·s	–	–
x1 = 0.8972	–	45.12 mPa·s	33.44 mPa·s	25.72 mPa·s	20.14 mPa·s	–	–
